In data set [1] the test system is α-1,4-glucan lyase. In words: Effect of alcohols on activity and stability of the lyase (AF yield). Format: biochemical, Gracilariopsis lemaneiformis. As to the method: 1-propanol, 2-propanol and 1-butanol were tested at the following concentrations (0%, 1%, 5% and 10%).
Ethanol was tested at the following concentrations (0, 1, 3, 5, 7, 9, 11, 13, 15%).

Data set [2] has as its system α-1,4-glucan lyase. Briefly: Degradation studies: AF released by the lyase from various substrates. As to conditions: for activity of the lyase towards maltosaccharides / degradation by the lyase: in words; for AF released: substrate 10 mg/ml, 10 mM HOAc-NaOAc pH 3.8, 40 min at 45° C., 100 ul. The class given is biochemical, Gracilariopsis lemaneiformis. As to the method:
Reaction conditions: The reaction mixture contained 10 mM of HOAc-NaOAc (pH 3.8). The substrate concentration was 10 mg/ml. The final volume was 100 ul after the addition of lyase and water. The reaction time was 40 min at 45° C.

Data set [3] relates to α-1,4-glucan lyase. Briefly: Reversible and irreversible inhibitors of the lyase. The class given is biochemical, Gracilariopsis lemaneiformis.
The nature of data set [4]: Isoelectric focusing of the α-1,4-glucan lyases. The class given is physicochemical. As to conditions: isoelectrofocusing, pH gradient 3-9. From the text: The relative migration rates were estimated from native PAGE on gels with 8-25% gradient; the pI values were estimated by isoelectrofocusing on gels with a pH gradient of 3-9.
FIG. 2. Isoelectric focusing of the α-1,4-glucan lyases on a gel with a pH gradient of pH 3 to pH 9. The gel was stained with PhastGel Blue R.

Here are results for 20 molecules from patent US6541237B1, “A-1,4-glucan lyase and its use in the production of 1.5-androfructose” (Danisco A/S, priority 1994, dated 2003).

1-butanol: the “increase of AF yield” value with α-1,4-glucan lyase [1] (optimal concentration 5%, after 3-day incubation) was found to be 52%.

As to 1-propanol, the AF yield in the data set with α-1,4-glucan lyase [1] (1% (v/v), reaction time 1 day) came out at 80 µmol; in the data set on α-1,4-glucan lyase [1] (1% (v/v), reaction time 3 days), 280 µmol; with α-1,4-glucan lyase [1] (1% (v/v), reaction time 6 days), 530 µmol; with α-1,4-glucan lyase [1] (1% (v/v), reaction time 10 days) it was 803 µmol; in the data set with α-1,4-glucan lyase [1] (5% (v/v), reaction time 1 day), 115 µmol; with α-1,4-glucan lyase [1] (5% (v/v), reaction time 3 days), 367 µmol. In addition, the AF yield in the data set on α-1,4-glucan lyase [1] (5% (v/v), reaction time 6 days) amounted to 605 µmol; in the data set with α-1,4-glucan lyase [1] (5% (v/v), reaction time 10 days) it was 853 µmol; in the data set on α-1,4-glucan lyase [1] (10% (v/v), reaction time 1 day), 107 µmol; with α-1,4-glucan lyase [1] (10% (v/v), reaction time 3 days) it was 307 µmol; with α-1,4-glucan lyase [1] (10% (v/v), reaction time 6 days), 456 µmol; with α-1,4-glucan lyase [1] (10% (v/v), reaction time 10 days) it was 583 µmol. Besides, in the data set with α-1,4-glucan lyase [1] (optimal concentration 5%, after 6 days of incubation), the “increase of AF yield” value is on record as 34%.

For `CC(C)O` [2-propanol], the “increase of AF yield” value in the data set with α-1,4-glucan lyase [1] (optimal concentration 1%, after 10 days incubation) came to 20%.

`CCO` [Ethanol]: the “increase of AF yield” value in the data set on α-1,4-glucan lyase [1] (optimal concentration 3%, 10 days incubation) turned out to be 16%; with α-1,4-glucan lyase [1] (optimal concentration 5%, 7 days incubation) it was 12%.

With `OC[C@H]1O[C@H](O[C@H]2[C@H](O)[C@@H](O)[C@@H](O[C@H]3[C@H](O)[C@@H](O)[C@@H](O[C@H]4[C@H](O)[C@@H](O)C(O)O[C@@H]4CO)O[C@@H]3CO)O[C@@H]2CO)[C@H](O)[C@@H](O)[C@@H]1O` (stereo partly drawn) [Maltotetraose], in the data set with α-1,4-glucan lyase [2], the “activity of the lyase towards maltosaccharides” value is “highest activity” and the AF released came to 670 nmol.

As for `OCC1OC(OC2C(CO)OC(OC3C(CO)OC(O)C(O)C3O)C(O)C2O)C(O)C(O)C1O` (stereo not drawn) [Maltotriose], in the data set on α-1,4-glucan lyase [2], the “activity of the lyase towards maltosaccharides” value is recorded as “lower activity” and the AF released was 654 nmol.

With `O=C(O)c1cc[c]([Hg][Cl])cc1` [PCMB, p-chloromercuribenzoic acid], the “decrease of lyase activity” value with α-1,4-glucan lyase [3] (2 mM PCMB, same assay conditions as for deoxyjirimycin (substrate 2% amylopectin)) is listed as 60%. In addition, in the data set on α-1,4-glucan lyase [3] (final concentration 2 mM PCMB), the “inhibition of the lyase activity” value came to 96%.

In the data set on α-1,4-glucan lyase [3] (25 μM inhibitor, substrate amylopectin 2%, algal lyase), `OC[C@H]1NC[C@H](O)[C@@H](O)[C@@H]1O` [deoxyjirimycin] gave a remaining lyase activity of 10.4%. Further, the lyase activity entry with α-1,4-glucan lyase [3] (100 μM inhibitor, substrate amylopectin 2%) is on record as “completely lost”.

For `OC[C@H]1O[C@H](OC[C@H]2OC(O)[C@H](O)[C@@H](O)[C@@H]2O)[C@H](O)[C@@H](O)[C@@H]1O` (stereo partly drawn) [isomaltose], in the data set on α-1,4-glucan lyase [2], the “degradation by the lyase” value is on record as “not able to degrade”.

`OC[C@H]1O[C@H](O[C@H]2[C@H](O)[C@@H](CO)OC(O)[C@@H]2O)[C@H](O)[C@@H](O)[C@@H]1O` (stereo partly drawn) [nigerose]: the “degradation by the lyase” value with α-1,4-glucan lyase [2] is recorded as “slow rate”.

Consider `OC[C@H]1O[C@H](O[C@H]2O[C@H](CO)[C@@H](O)[C@H](O)[C@H]2O)[C@H](O)[C@@H](O)[C@@H]1O` [trehalose], for which the “degradation by the lyase” value with α-1,4-glucan lyase [2] was “not able to degrade”.

Turning to `OC[C@H]1O[C@@H]2O[C@H]3[C@H](O)[C@@H](O)[C@@H](O[C@H]4[C@H](O)[C@@H](O)[C@@H](O[C@H]5[C@H](O)[C@@H](O)[C@@H](O[C@H]6[C@H](O)[C@@H](O)[C@@H](O[C@H]7[C@H](O)[C@@H](O)[C@@H](O[C@H]8[C@H](O)[C@@H](O)[C@@H](O[C@H]1[C@H](O)[C@H]2O)O[C@@H]8CO)O[C@@H]7CO)O[C@@H]6CO)O[C@@H]5CO)O[C@@H]4CO)O[C@@H]3CO` [β-cyclodextrins], the “degradation by the lyase” value with α-1,4-glucan lyase [2] was “not able to degrade”.

On to Maltoheptaose, for which, in the data set on α-1,4-glucan lyase [2], the “activity of the lyase towards maltosaccharides” value is listed as “lower activity” and the AF released stood at 865 nmol.

With Maltohexaose, in the data set with α-1,4-glucan lyase [2], the AF released came out at 826 nmol.

Regarding Maltopentaose, in the data set with α-1,4-glucan lyase [2], the “activity of the lyase towards maltosaccharides” value is recorded as “highest activity” and the AF released was 674 nmol.

As to nigeran tetrasaccharide, the “degradation by the lyase” value in the data set on α-1,4-glucan lyase [2] is recorded as “not able to degrade”.

Take panose: the “degradation by the lyase” value in the data set on α-1,4-glucan lyase [2] is on record as “slow rate”.

Turning to pullulan, the “degradation by the lyase” value with α-1,4-glucan lyase [2] is listed as “not able to degrade”.

B1: GLsc1-lyase: lyase purified from Gracilariopsis lemaneiformis collected in Santa Cruz, Calif. (protein)
chain: TALSDKQTAISIGPDNPDGINYQNYDYIPVAGFTPLSNTNWYAAGSSTPGGITDWTATMNVKFDRIDNPSYSNNHPVQIQVTSYNNNSFRIRFNPDGPIRDVSRGPILKQQLTWIRNQELAQGCNPNMSFSPEGFLSFETKDLNVIIYGNCKMRVTKKDGYLVMENDECNSQSDGNKCRGLMYVDRLYGNAIASVQTNFHKDTSRNEKFYGAGEVNCRYEEQGKAPTYVLERSGLAMTNYNYDNLNYNQPDVVPPGYPDHPNYYIPMYYAAPWLVVQGCAGTSKQYSYGWFMDNVSQSYMNTGDTAWNCGQENLAYMGAQYGPFDQHFVYGDGDGLEDVVKAFSFLQGKEFEDKKLNKRSVMPPKYVFGFFQGVFGALSLLKQNLPAGENNISVQEIVEGYQDNDYPFEGLAVDVDMQDDLRVFTTKPEYWSANMVGEGGDPNNRSVFEWAHDRGLVCQTNVTCFLRNDNSGKPYEVNQTLREKQLYTKNDSLNNTDFGTTSDGPGDAYIGHLDYGGGVECDAIFPDWGRPDVAQWWGENYKKLFSIGLDFVWQDMTVPAMMPHRLGDAVNKNSGSSAPGWPNENDPSNGRYNWKSYHPQVLVTDMRYGAEYGREPMVSQRNIHAYTLCESTRREGIVGNADSLTKFRRSYIISRGGYIGNQHFGGMWVGDNSATESYLQMMLANIINMNMSCLPLVGSDIGGFTQYNDAGDPTPEDLMVRFVQAGCLLPWFRNHYDRWIESKKHGKKYQELYMYPGQKDTLKKFVEFRYRWQEVLYTAMYQNATTGEPIIKAAPMYNNDVNVYKSQNDHFLLGGHDGYRILCAPVVRENATSREVYLPVYSKWFKFGPDFDTKPLENEIQGGQTLYNYAAPLNDSPIFVREGTILPTRYTLDGVNKSINTYTDNDPLVFELFPLENNQAHGLFYHDDGGVTTNAEDFGKYSVISVKAAQEGSQMSVKFDNEVYEHQWGASFYVRVRNMGAPSNINVSSQIGQQDMQQSSVSSRAQMFTSANDGEYWVDQSTNSLWLKLPGAVIQDAAITVR
For the molecule B1, the pI in data set [4] stood at 4.1.

B2: MC-lyase: lyase isolated from the fungus Morchella costata, ATCC (protein)
chain: MAGFSDPLNFCKAEDYYSVALDWKGPQKIIGVDTTPPKSTKFPKNWHGVNLRFDDGTLGVVQFIRPCVWRVRYDPGFKTSDEYGDENTRTIVQDYMSTLSNKLDTYRGLTWETKCEDSGDFFTFSSKVTAVEKSERTRNKVGDGLRIHLWKSPFRIQVVRTLTPLKDPYPIPNVAAAEARVSDKVVWQTSPKTFRKNLHPQHKMLKDTVLDIVKPGHGEYVGWGEMGGIQFMKEPTFMNYFNFDNMQYQQVYAQGALDSREPLYHSDPFYLDVNSNPEHKNITATFIDNYSQIAIDFGKTNSGYIKLGTRYGGIDCYGISADTVPEIVRLYTGLVGRSKLKPRYILGAHQACYGYQQESDLYSVVQQYRDCKFPLDGIHVDVDVQDGFRTFTTNPHTFPNPKEMFTNLRNNGIKCSTNITPVISINNREGGYSTLLEGVDKKYFIMDDRYTEGTSGNAKDVRYMYYGGGNKVEVDPNDVNGRPDFKDNYDFPANFNSKQYPYHGGVSYGYGNGSAGFYPDLNRKEVRIWWGMQYKYLFDMGLEFVWQDMTTPAIHTSYGDMKGLPTRLLVTSDSVTNASEKKLAIETWALYSYNLHKATWHGLSRLESRKNKRNFILGRGSYAGAYRFAGLWTGDNASNWEFWKISVSQVLSLGLNGVCIAGSDTGGFEPYRDANGVEEKYCSPELLIRWYTGSFLLPWLRNHYVKKDRKWFQEPYSYPKHLETHPELADQAWLYKSVLEICRYYVELRYSLIQLLYDCMFQNVVDGMPITRSMLLTDTEDTTFFNESQKFLDNQYMAGDDILVAPILHSRKEIPGENRDVYLPLYHTWYPSNLRPWDDQGVALGNPVEGGSVINYTARIVAPEDYNLFHSVVPVYVREGAIIPQIEVRQWTGQGGANRIKFNIYPGKDKEYCTYLDDGVSRDSAPEDLPQYKETHEQSKVEGAEIAKQIGKKTGYNISGTDPEAKGYHRKVAVTQTSKDKTRTVTIEPKHNGYDPSKEVGDYYTIILWYAPGFDGSIVDVSKTTVNVEGGVEHQVYKNSDLHTVVIDVKEVIGTTKSVKITCTAA
In the case of B2, the pI in data set [4] was determined as 4.5.
